The values that follow come from patent US5120752A, “Cyclopropyl derivative lipoxygenase inhibitors” (Abbott Laboratories, priority 1990, dated 1992).

As a reminder, the IC50 is the midpoint of a concentration-inhibition curve.

In assay [1] the target is T1, 5-lipoxygenase (Rattus norvegicus, UniProt P12527).
T1 construct: 20,000×g supernatant from 1.5 million homogenized RBL-1 cells; endogenous in cells; host or cells: RBL-1 cells (20,000×g supernatant of homogenate)
T1 sequence (P12527 1-673): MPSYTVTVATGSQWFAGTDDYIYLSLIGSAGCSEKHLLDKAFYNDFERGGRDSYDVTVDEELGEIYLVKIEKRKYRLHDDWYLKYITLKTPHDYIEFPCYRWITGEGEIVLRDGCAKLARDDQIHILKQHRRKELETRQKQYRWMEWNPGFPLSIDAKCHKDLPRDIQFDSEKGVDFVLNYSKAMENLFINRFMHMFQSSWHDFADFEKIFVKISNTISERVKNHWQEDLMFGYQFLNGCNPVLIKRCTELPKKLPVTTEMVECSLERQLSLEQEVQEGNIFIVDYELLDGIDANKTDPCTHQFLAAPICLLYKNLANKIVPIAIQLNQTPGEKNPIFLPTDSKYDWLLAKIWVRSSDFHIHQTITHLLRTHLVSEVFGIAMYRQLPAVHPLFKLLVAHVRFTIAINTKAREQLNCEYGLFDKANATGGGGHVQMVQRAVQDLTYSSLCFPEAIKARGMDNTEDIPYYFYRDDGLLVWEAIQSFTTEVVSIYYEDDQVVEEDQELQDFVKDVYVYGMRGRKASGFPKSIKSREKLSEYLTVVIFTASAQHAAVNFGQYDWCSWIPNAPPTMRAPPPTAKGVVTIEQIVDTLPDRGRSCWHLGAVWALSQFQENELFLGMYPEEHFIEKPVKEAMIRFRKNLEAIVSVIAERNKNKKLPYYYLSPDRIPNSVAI
Briefly: In vitro inhibition of 5-lipoxygenase (20,000×g supernatant from homogenized RBL-1 cells, radiolabeled arachidonic acid). It counts as biochemical. To be noted: 20,000×g supernatant of RBL-1 cells; triplicate; read-out: IC50 (in vitro inhibitory potency against 5-lipoxygenase). The method, then: Assays to determine 5-lipoxygenase inhibitory activity were performed in […] incubations containing the 20,000×g supernatant from 1.5 million homogenized RBL-1 cells and various concentrations of the test compound. Reactions were initiated by addition of radiolabeled arachidonic acid and terminated by acidification and ether extraction. Reaction products were separated from nonconverted substrate by thin layer chromatography and measured by liquid scintillation spectroscopy. All incubations were performed in triplicate. Inhibition of 5-lipoxygenase activity was calculated as the ratio of the amount of product formed in the presence and absence of inhibitor. IC50 values (concentration of compound producing 50% enzyme inhibition) were calculated by linear regression analysis of percentage inhibition versus log inhibitor concentration plots. (Dyer, R .D.; Haviv, F.; Hanel, A. M.; Bornemier, D. A.; Carter, G. W. Fed. Proc., Fed. Am. Soc. Exp. Biol. 1984, 43, 1462A).

Assay [2] deals with leukotriene biosynthesis. Briefly: Inhibition of leukotriene biosynthesis in vivo after oral administration, rat peritoneal anaphylaxis model. To be noted: 200 μmol/kg oral (gavage), 1 h before antigen challenge; for inhibition in vivo at 200 µmol/kg: read-out: % Inhibition of Leukotrienes at 200 μmol/kg oral dose. On the procedure:
Inhibition of the biosynthesis of leukotrienes in vivo after oral administration of representative test compounds of this invention was determined using a rat peritoneal anaphylaxis model in a similar manner as that described by Young and coworkers (Young, P. R.; Dyer, R. D.; Carter, G. W. Fed. Proc., Fed. Am. Soc. Exp. Biol. 1985, 44, 1185). In this model rats were injected intraperitoneally (ip) with rabbit antibody to bovine serum albumin (BSA) and three hours later injected ip with BSA to induce an antgen-antibody response. Rats were sacrificed 15 minutes after this challenge and the peritoneal fluids were collected and analyzed for leukotriene levels. Test compounds were administered by gavage one hour prior to the antigen challenge. Percent inhibition values were determined by comparing the treatment group to the mean of the control group. The results of this assay, for representative compounds of the present invention, at an oral dose level of […] are presented in Table 2, and at an oral dose of […] in Table 3.

In assay [3] the test system is LTB4 biosynthesis in human whole blood. Briefly: Inhibition of calcium ionophore-induced LTB4 biosynthesis in human whole blood. Type of assay: cell-based. As to conditions: A23187 50 μM, 15 min preincubation, read-out: Inhibition of Leukotriene Biosynthesis IC50. The method, then:
Inhibition of leukotriene biosynthesis was evaluated in an assay, involving calcium ionophore-induced LTB4 biosynthesis expressed by human whole blood. Heparinized (20 U/mL) human blood (0.3 mL) was preincubated with test compound or vehicle for 15 min. at 37° C. Eicosanoid biosynthesis was initiated by adding calcium ionophore (A23187) in DMSO to a final concentration of 50 μM and terminated after 30 min. by rapid cooling of the blood in an ice bath and centrifuging at 3° C. for 10 min at 2500×g. The plasma was mixed with 4 volumes of methanol and allowed to stand for at least 30 min. at 3° C. prior to centrifuging at 1800×g for 10 min. The level of LTB4 in aliquots of the methanol-plasma extract was analyzed by radio-immunoassay or enyme-immunoassay techniques.

`NC(=O)N(O)C[C@@H]1C[C@H]1c1ccccc1` (relative stereo) [Example 4, N-1-(trans-(2-phenylcyclopropyl)methyl)-N-hydroxyurea]: the 50% inhibitory concentration (IC50) in assay [1] came to 1.8 µM. Also, the inhibition in vivo at 200 µmol/kg in assay [2] turned out to be 97%. Taken in the same sequence, the figures for `NC(=O)N(O)C[C@@H]1C[C@H]1c1cccc(Oc2ccccc2)c1` (relative stereo) [Example 10, N-(1-trans-(2-(3-phenoxyphenyl)cyclopropyl)methyl)-N-hydroxyurea] were 0.1 µM and 97%. As to `CNC(=O)N(O)C[C@@H]1C[C@H]1c1cccc(Oc2ccccc2)c1` (relative stereo) [Example 11, N-(1-trans-(2-(3-phenoxyphenyl)cyclopropyl)methyl)-N-hydroxy-N'-methylurea], the IC50 in assay [1] was determined as 0.1 µM. Moreover, the inhibition in vivo at 200 µmol/kg in assay [2] stood at 65%. On to `NC(=O)N(O)C[C@@H]1C[C@H]1c1cc2ccccc2s1` (relative stereo) [Example 12], for which the inhibition in vivo at 200 µmol/kg in assay [2] came out at 68%. Still for that read-out and setting: to `CNC(=O)N(O)C[C@@H]1C[C@H]1c1cc2ccccc2s1` (relative stereo) [Example 13] belongs 76%.

For `NC(=O)N(O)C[C@H]1C[C@H]1c1ccccc1` (relative stereo) [Example 16, N-(1-cis-(2-phenylcyclopropyl)methyl)-N-hydroxyurea], the IC50 in assay [1] stood at 2.8 µM. In assay [2], the inhibition in vivo at 200 µmol/kg amounted to 61%.

Regarding `Cc1ccc([C@@H]2C[C@H]2C(C)N(O)C(N)=O)o1` (relative stereo) [Example 26, N-(1-trans-((5-methylfuran-2-yl)cyclopropyl)ethyl)-N-hydroxyurea], the half-inhibitory concentration (IC50) in assay [1] turned out to be 1.1 µM. Moreover, in assay [2], the “% Inhibition of Leukotrienes at 200 μmol/kg oral dose” value stood at 92%. With `CC(=O)N(O)C[C@@H]1C[C@H]1c1ccccc1` (relative stereo) [Example 27, N-(1-trans-(2-phenylcyclopropyl)methyl)-N-hydroxyacetamide], the half-maximal inhibitory concentration (IC50) in assay [1] came out at 1.7 µM. Moreover, the inhibition in vivo at 200 µmol/kg in assay [2] turned out to be 99%. Regarding `NC(=O)N(O)C[C@@H]1C[C@H]1CCc1ccccc1` (relative stereo) [Example 33, N-(1-trans-(2-(2-phenylethyl)cyclopropyl)methyl)-N-hydroxyurea], in assay [2], the inhibition in vivo at 200 µmol/kg was found to be 84%. `NC(=O)N(O)CC[C@@H]1C[C@H]1c1ccccc1` (relative stereo) [Example 34, N-(2-trans-(2-phenylcyclopropyl)ethyl)-N-hydroxyurea]: in assay [1], the IC50 was 0.3 µM. Further, in assay [2], the inhibition in vivo at 200 µmol/kg came out at 100%. As to `NC(=O)N(O)C[C@@H]1C[C@H]1c1ccc(Br)cc1` (relative stereo) [Example 35, N-(1-trans-(2-(4-bromophenyl)cyclopropyl)methyl)-N-hydroxyurea], the inhibition in vivo at 200 µmol/kg in assay [2] was found to be 99%. Regarding `NC(=O)N(O)C[C@@H]1C[C@H]1c1ccccc1Oc1ccccc1` (relative stereo) [Example 40, N-(1-trans-(2-(2-phenoxyphenyl)cyclopropyl)methyl)-N-hydroxyurea], the 50% inhibitory concentration (IC50) in assay [1] was determined as 0.2 µM. Besides, the inhibition in vivo at 200 µmol/kg in assay [2] stood at 97%. Taken in the same sequence, the figures for `Cc1ccc([C@@H]2C[C@H]2CN(O)C(N)=O)cc1` (relative stereo) [Example 47, N-(1-trans-(2-(4-methylphenyl)cyclopropyl)methyl)-N-hydroxyurea] were 0.3 µM and 100%.

As to `NC(=O)N(O)C[C@@H]1C[C@H]1c1cccc(Oc2ccc(O)cc2)c1` (relative stereo) [Example 160, N-(1-trans-(2-(3(4-hydroxyphenoxy)phenyl)cyclopropyl)methyl)-N-hydroxyurea], the IC50 in assay [3] amounted to 0.47 µM. Consider `CC([C@@H]1C[C@H]1c1cc2ccccc2s1)N(O)C(N)=O` (stereo partly drawn) [Example 1, N-(1-trans-(2-(benzo[b]thien-2-yl)cyclopropyl)ethyl)-N-hydroxyurea], for which the inhibition in vivo at 200 µmol/kg in assay [2] came to 62%. In the case of `CC([C@@H]1C[C@H]1c1ccccc1)N(O)C(N)=O` (stereo partly drawn) [Example 3, N-(1-trans-(2-phenylcyclopropyl)ethyl)-N-hydroxyurea], the 50% inhibitory concentration (IC50) in assay [1] came to 1.6 µM. Also, in assay [2], the inhibition in vivo at 200 µmol/kg was 100%.

On to `CC(N(O)C(N)=O)[C@]1(C)C[C@H]1c1ccccc1` (stereo partly drawn) [Example 5, N-(1-trans-(1-methyl-2-phenylcyclopropyl)ethyl)-N-hydroxyurea], for which, in assay [2], the inhibition in vivo at 200 µmol/kg amounted to 90%. Turning to `CC(C1CC1c1ccccc1)N(O)C(N)=O` (stereo not drawn) [Example 9, N-(1-cis-(2-phenylcyclopropyl)ethyl)-N-hydroxyurea], the 50% inhibitory concentration (IC50) in assay [1] was 1.8 µM. The inhibition in vivo at 200 µmol/kg in assay [2] was 61%.

Take `CNC(=O)N(O)C(C)[C@@H]1C[C@H]1c1cccc(Oc2ccccc2)c1` (stereo partly drawn) [Example 17, N-(1-trans-(2-(3-phenoxyphenyl)cyclopropyl)ethyl)-N-hydroxy-N'-methylurea]: the half-maximal inhibitory concentration (IC50) in assay [1] came out at 0.07 µM. Further, the inhibition in vivo at 200 µmol/kg in assay [2] was 81%. Turning to `CC(C)Cc1ccc([C@@H]2C[C@H]2C(C)N(O)C(N)=O)cc1` (stereo partly drawn) [Example 19, N-(1-trans-(2-(4-(2-methyl-1-propyl)phenyl)cyclopropyl)-ethyl)-N-hydroxyurea], the inhibition in vivo at 200 µmol/kg in assay [2] was determined as 64%.

`COc1ccc([C@@H]2C[C@H]2C(C)N(O)C(N)=O)cc1` (stereo partly drawn) [Example 22, N-(1-trans-(2-(4-methoxyphenyl)cyclopropyl)ethyl)-N-hydroxyurea]: in assay [1], the IC50 turned out to be 0.9 µM. The inhibition in vivo at 200 µmol/kg in assay [2] was 96%.

Turning to `CC(Oc1ccc([C@@H]2C[C@H]2CN(O)C(N)=O)cc1)c1ccccc1` (stereo partly drawn) [Example 23, N-(1-trans-(2-(4-(1-phenylethoxy)phenyl)cyclopropyl)methyl)-N-hydroxyurea], in assay [1], the IC50 stood at 0.1 µM. Also, in assay [2], the inhibition in vivo at 200 µmol/kg was determined as 93%.

`CC(Oc1ccc([C@H]2[C@H](CN(O)C(N)=O)C2(C)C)cc1)c1ccccc1` (stereo partly drawn) [Example 25]: the IC50 in assay [1] amounted to 0.1 µM. In assay [2], the inhibition in vivo at 200 µmol/kg turned out to be 52%.

Take `CC(=O)N(O)C(C)[C@@H]1C[C@H]1c1cc2ccccc2s1` (stereo partly drawn) [Example 28, N-(1-trans-(2-(benzo[b]thien-2-yl)cyclopropyl)ethyl)-N-hydroxyacetamide]: the IC50 in assay [1] was determined as 0.1 µM. Also, the inhibition in vivo at 200 µmol/kg in assay [2] came to 73%. Taken in the same sequence, the figures for `COc1ccc([C@@H]2C[C@H]2C(C)N(O)C(C)=O)cc1` (stereo partly drawn) [Example 29, N-(1-trans-(2-(4-methoxyphenyl)cyclopropyl)ethyl)-N-hydroxyacetamide] were 0.9 µM and 96%. Take `CC([C@@H]1C[C@H]1c1ccc(Br)cc1)N(O)C(N)=O` (stereo partly drawn) [Example 37, N-(1-trans-(2-(4-bromophenyl)cyclopropyl)ethyl)-N-hydroxyurea]: the IC50 in assay [1] was 0.1 µM. Also, the inhibition in vivo at 200 µmol/kg in assay [2] was 93%. Turning to `Cc1ccc([C@@H]2C[C@H]2C(C)N(O)C(N)=O)cc1` (stereo partly drawn) [Example 39, N-(1-trans-(2-(4-methylphenyl)cyclopropyl)ethyl)-N-hydroxyurea], the inhibition in vivo at 200 µmol/kg in assay [2] turned out to be 82%.
